The results in this text go back to paper PMC10534827 (Pharmaceuticals, 2023).

One series concerns SH-SY5Y cells. The experiment in a line: MTT cytotoxicity, SH-SY5Y. The format is cell-based, human. Particulars: Homo sapiens, SH-SY5Y; MTT, 72 h exposure; read-out: SH-SY5Y IC50.
The nature of another series: PAMPA-BBB permeability. Format: in vitro ADME. Particulars: for PAMPA BBB −logPe: experimentally measured BBB permeability. From the text: At the same time, they needed to fulfill the requirement for good BBB permeation in order to achieve sufficient brain exposure. Although transport across the BBB is quite a complex phenomenon, passive diffusion is still the primary route for exogenous substances to access that target. So, the selected compounds were subjected to an in vitro PAMPA-BBB assay, relying on the capacity of the method in distinguishing the candidates with good BBB passive permeabilities. […].
The blood–brain barrier permeabilities were measured by PAMPA Permeability Analyzer (pIONInc, Billerica, MA, USA). The tested compounds and reference standards were prepared as 10 mM stock solutions in DMSO and further diluted in Prisma HT buffer pH 7.4. The experiment followed the BBB Protocol: 200 μL sample’s aliquots in the donor compartment, Brain Sink Buffer aliquots (200 μL) in the acceptor wells, BBB-1 lipid for coating the permeation membranes, “sandwich” assembly with the acceptor plate on top of the donor one, and incubation at temperature 25 °C for 4 h under humidity control without stirring. For permeability assessment, UV spectra of the blank, reference, donor, and acceptor plates were collected at wavelength 250–500 nm. […]. Samples were analyzed in triplicate and average values were reported. […]. Theophylline, corticosterone, and propranolol HCl were used as reference standards to control the quality and consistency of the BBB permeability experiment.
For orientation: PAMPA measures passive passage across an artificial lipid membrane.

Series [1] deals with T1, butyrylcholinesterase from equine serum (Equus caballus, UniProt P81908).
T1 construct: butyrylcholinesterase from equine serum; purchased Sigma-Aldrich, Hamburg, Germany; host or cells: equine serum
T1 sequence (P81908 whole entry): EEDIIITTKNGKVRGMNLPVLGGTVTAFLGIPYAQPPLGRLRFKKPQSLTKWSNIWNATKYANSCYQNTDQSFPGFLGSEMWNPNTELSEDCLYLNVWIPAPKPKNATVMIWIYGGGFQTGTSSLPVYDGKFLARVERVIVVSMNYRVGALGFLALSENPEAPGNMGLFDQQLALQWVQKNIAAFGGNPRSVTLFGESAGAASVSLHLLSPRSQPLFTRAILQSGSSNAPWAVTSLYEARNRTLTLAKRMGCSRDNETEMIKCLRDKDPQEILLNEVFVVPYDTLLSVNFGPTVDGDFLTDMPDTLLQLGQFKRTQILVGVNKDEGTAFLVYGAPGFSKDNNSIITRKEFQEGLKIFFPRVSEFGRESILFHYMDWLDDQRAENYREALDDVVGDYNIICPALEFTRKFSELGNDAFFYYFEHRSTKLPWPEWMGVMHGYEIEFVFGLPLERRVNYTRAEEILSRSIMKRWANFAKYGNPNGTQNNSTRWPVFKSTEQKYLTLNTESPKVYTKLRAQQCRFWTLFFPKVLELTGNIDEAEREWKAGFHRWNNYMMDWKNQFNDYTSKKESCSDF
Kind of series: biochemical. Particulars: for inhibition at 1000 µM: 1 mM solution of the tested compound, read-out: Activity [%] (inhibition percentage of BChE); for IC50: mean ± SD of three experiments, read-out: BChE IC50; for SI BChE: IC50(AChE)/IC50(BChE).
Experimental: (§1) AChE and BChE inhibitory activity was measured using the microplate assay described by Ellman et al. [68] with the modifications added by López et al. [36]. The compounds were tested at concentrations between 10^−3 and 10^−8 M. First, all compounds were dissolved in 1% DMSO in a concentration of 1 mg/mL.
(§2) Incubation of the plates was performed at room temperature for 30 min. Then, 100 μL of substrate solution were added to start the enzymatic reaction. […] Enzyme activity was calculated as an inhibition percentage compared to an assay including buffer instead of an inhibitor. […] All data were analyzed with the software package Prism 3 (Graph Pad Inc., San Diego, CA, USA).

Series [2] is described as follows: Ferric reducing antioxidant power (FRAP). Particulars: 150 μL of 5 mM compound, 30 min, 593 nm, Trolox equivalent.
A short description of series [3]: DPPH radical scavenging activity. Particulars: 300 μL of 5 mM compound in MeOH, 30 min, 517 nm. On the technique in general: DPPH is a stable violet radical that fades when it is reduced.
Experimental: The DPPH (2,2-diphenyl-1-picryl-hydrazyl-hydrate) free radical scavenging activity method is based on the neutralization of the DPPH radical by an antioxidant.
Free radical scavenging activity was measured using DPPH method [69, 70] with slight modification. Here, 300 μL of 5 mM solutions of tested compounds in MeOH were added to 2 mL methanolic solution of DPPH (2 mg/mL). […] Results were evaluated as percentage scavenging of radical:DPPH radical scavenging activity (%) = ((Abscontr. − Abssample)/Abscontr.) ×100, where Abscontr. is the absorbance of DPPH radical with 300 μL MeOH, Abssample is the absorbance of DPPH radical solution mixed with sample. BHT was used as positive control.
A short description of series [4]: ABTS radical scavenging assay. Particulars: 734 nm after 5 min.
Experimental: These compounds were also tested for their antioxidant activities by using the ABTS [2,2′-azinobis (3-ethylbenzothiazoline-6-sulfonic acid)] cation radical decolorization method (Table 4). The BHT [41] was used for comparison. The ABTS cation radical is produced by oxidation of the ABTS molecule with strong oxidizing agents, such as potassium persulfate in water.
For ABTS assay, the procedure followed the method of Arnao et al. [71] with some modifications. […] The working solution was then prepared by mixing the two stock solutions in equal quantities and allowing them to react for 14 h at room temperature in the dark. […] A fresh ABTS solution was prepared for each assay. […] The ABTS scavenging capacity of the compound was calculated as follows:ABTS radical scavenging activity (%) = ((Abscontr. − Abssample)/Abscontr.) ×100, where Abscontr. is the absorbance of DPPH radical with 300 μL MeOH, Abssample is the absorbance of DPPH radical solution mixed with the sample. […] BHT was used as positive control.
Series [5] concerns the target T2, Acetylcholinesterase from Electrophorus electricus (Electrophorus electricus, UniProt O42275).
T2 construct: purchased Sigma-Aldrich, Hamburg, Germany
Kind of series: biochemical. Format: biochemical. Particulars: for inhibition at 1000 µM: 1 mM solution of the tested compound, read-out: Activity [%] (inhibition percentage of AChE); for IC50: mean ± SD of three experiments, read-out: AChE IC50; for SI AChE: IC50(BChE)/IC50(AChE).
Experimental: as §1, §2

The test system of another series is CCL-1 cells. Kind of series: MTT cytotoxicity, CCL-1 normal fibroblasts. Format: cell-based, murine. Particulars: Mus musculus, Fibroblast; MTT, 72 h exposure; read-out: CCL-1 IC50.
Another series relates to Neuro-2a cells. Kind of series: MTT cytotoxicity, Neuro-2a. The format is cell-based, murine. Particulars: Mus musculus, N2a; MTT, 72 h exposure; read-out: Neuro-2a IC50.
Series [6] can be described thus: Lipid peroxidation in linoleic acid system, FTC method. Particulars: 10 mM compound, 500 nm.
Experimental: The antioxidant activity of studied compounds against lipid peroxidation was measured through ammonium thiocyanate assay as described by Takao et al. [66] with some modifications. […] A 10 μL aliquot of the reaction solution was then added to 200 μL of 70% (v/v) ethanol and 10 μL of 30% (w/v) ammonium thiocyanate. […] Aliquots were assayed every 24 h until the day after the absorbance of the control solution (without compound) reached maximum value. BHT (10 mM) was used as positive control.

T2 sequence (O42275 24-633): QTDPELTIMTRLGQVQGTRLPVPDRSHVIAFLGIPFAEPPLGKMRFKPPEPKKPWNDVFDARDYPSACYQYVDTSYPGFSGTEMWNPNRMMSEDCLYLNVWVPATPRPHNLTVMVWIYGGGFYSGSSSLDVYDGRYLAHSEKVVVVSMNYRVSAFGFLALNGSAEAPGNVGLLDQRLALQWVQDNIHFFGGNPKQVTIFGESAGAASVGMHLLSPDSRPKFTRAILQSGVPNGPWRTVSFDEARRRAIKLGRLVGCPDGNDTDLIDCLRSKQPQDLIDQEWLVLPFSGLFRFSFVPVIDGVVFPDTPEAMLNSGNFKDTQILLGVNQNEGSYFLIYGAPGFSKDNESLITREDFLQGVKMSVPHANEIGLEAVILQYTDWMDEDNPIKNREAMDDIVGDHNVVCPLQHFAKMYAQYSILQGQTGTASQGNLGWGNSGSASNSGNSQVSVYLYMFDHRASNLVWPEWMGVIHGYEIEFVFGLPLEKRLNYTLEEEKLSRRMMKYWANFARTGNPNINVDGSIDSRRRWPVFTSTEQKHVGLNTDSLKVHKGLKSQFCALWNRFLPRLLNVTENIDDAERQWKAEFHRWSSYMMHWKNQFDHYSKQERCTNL

Regarding `O=S(=O)(N/N=C/C1CCN(Cc2ccccc2)CC1)c1ccccc1` [5a, N’-[(E)-(1-benzylpiperidin-4-yl)methylidene]benzenesulfonohydrazide], in the series with SH-SY5Y cells, the half-inhibitory concentration (IC50) amounted to 142 ± 13.1 µM. Besides, the “PAMPA BBB −logPe” value in “PAMPA-BBB permeability” was determined as 4.749. For the same compound, in series [1], the inhibition at 1000 µM was 79.4% and the IC50 is 259 ± 4.9 µM. The FRAP in series [2] came to 17.48 ± 0.90 μMTE. Besides, the “DPPH Activity” value in series [3] amounted to 6.56 ± 0.78%. Also, in [4], the “ABTS Activity” value worked out at 43.80 ± 0.23% and the IC50 was more than 5000 µM. In addition, in series [5], the inhibition at 1000 µM amounted to 77% and the IC50 was 163 ± 10.7 µM. Besides, the IC50 in the series on CCL-1 cells was 157 ± 8.5 µM. Besides, the IC50 with Neuro-2a cells is more than 300 µM. Besides, in series [6], the “Absorbance Day 1” value is on record as 0.83 ± 0.02, the “Absorbance Day 2” value amounted to 0.88 ± 0.08, the “Absorbance Day 3” value came out at 0.89 ± 0.04 and the “Absorbance Day 4” value was determined as 1.00 ± 0.04. In addition, the “Absorbance Day 5” value in series [6] stood at 1.10 ± 0.05.

On to `COc1ccc2[nH]cc(/C=N/NC(=O)Cc3c[nH]c4ccccc34)c2c1` [3n, 2-(1H-indol-3-yl)-N’-[(E)-(5-methoxy-1H-indol-3-yl)methylidene]acetohydrazide], for which the IC50 in the series on SH-SY5Y cells worked out at 108 ± 9.4 µM. In “PAMPA-BBB permeability”, the “PAMPA BBB −logPe” value was found to be 4.084. In [1], the inhibition at 1000 µM was determined as 73.7%, the “SI BChE” value came out at 47.34 and the IC50 was 21.1 ± 1.48 µM. In addition, the FRAP in [2] turned out to be 14.30 ± 0.56 μMTE. In addition, the “DPPH Activity” value in series [3] came out at 40.62 ± 0.83%. In series [4], the “ABTS Activity” value was not below 100% and the half-maximal inhibitory concentration (IC50) worked out at 770 ± 60 µM. In series [5], the inhibition at 1000 µM is 29.2% and the IC50 was more than 1000 µM. Further, the IC50 in the series on CCL-1 cells stood at 48.2 ± 6.4 µM. Further, the IC50 in the series on Neuro-2a cells came to 83.7 ± 8.3 µM. In addition, in [6], the “Absorbance Day 1” value amounted to 0.85 ± 0.05, the “Absorbance Day 2” value is 0.87 ± 0.07, the “Absorbance Day 3” value came to 0.89 ± 0.04 and the “Absorbance Day 4” value is on record as 0.90 ± 0.01. Moreover, in series [6], the “Absorbance Day 5” value is 0.92 ± 0.06.

As to `O=C(Cc1c[nH]c2ccccc12)N/N=C/C1CCN(Cc2ccccc2)CC1` [3a, N’-[(E)-(1-benzylpiperidin-4-yl)methylidene]-2-(1H-indol-3-yl)acetohydrazide], the IC50 with SH-SY5Y cells came to 129 ± 7.5 µM. Further, the “PAMPA BBB −logPe” value in “PAMPA-BBB permeability” is 4.420. Besides, in series [1], the inhibition at 1000 µM was 80.4%, the “SI BChE” value stood at 1.35 and the IC50 came out at 56.5 ± 0.2 µM. Also, the FRAP in [2] is 15.42 ± 0.74 μMTE. In addition, in series [3], the “DPPH Activity” value is on record as 5.74 ± 0.39%. In series [5], the inhibition at 1000 µM turned out to be 78.9% and the IC50 was 76.5 ± 3.04 µM. In addition, the IC50 in the series with CCL-1 cells worked out at 138 ± 9.8 µM. Also, the IC50 in the series with Neuro-2a cells is more than 300 µM. In addition, in [6], the “Absorbance Day 1” value was found to be 0.87 ± 0.03, the “Absorbance Day 2” value is reported as 0.87 ± 0.08, the “Absorbance Day 3” value turned out to be 0.72 ± 0.07 and the “Absorbance Day 4” value came to 0.72 ± 0.05. The “Absorbance Day 5” value in [6] is given as 0.71 ± 0.08.

In the case of `O=C(N/N=C/C1CCN(Cc2ccccc2)CC1)c1c[nH]c2ccccc12` [3c, N’-[(E)-(1-benzylpiperidin-4-yl)methylidene]-1H-indole-3-carbohydrazide], in the series on SH-SY5Y cells, the IC50 is 97.3 µM. In “PAMPA-BBB permeability”, the “PAMPA BBB −logPe” value turned out to be 4.466. Moreover, in [1], the inhibition at 1000 µM amounted to 77% and the IC50 stood at 26.3 ± 3.11 µM. In addition, in series [2], the FRAP came out at 38.97 ± 3.58 μMTE. In series [3], the “DPPH Activity” value came out at 30.05 ± 0.55%. In addition, in series [4], the “ABTS Activity” value was 36.69 ± 0.70% and the IC50 is more than 5000 µM. In series [5], the inhibition at 1000 µM turned out to be 72%, the “SI AChE” value came out at 2.45 and the IC50 stood at 10.8 ± 1.66 µM. In addition, the IC50 with CCL-1 cells amounted to 168 ± 10.4 µM. In addition, the IC50 in the series on Neuro-2a cells is more than 300 µM. For the same compound, in series [6], the “Absorbance Day 1” value worked out at 0.89 ± 0.07, the “Absorbance Day 2” value turned out to be 0.87 ± 0.02, the “Absorbance Day 3” value came to 0.85 ± 0.05 and the “Absorbance Day 4” value is on record as 0.85 ± 0.07. Moreover, the “Absorbance Day 5” value in series [6] is recorded as 0.74 ± 0.05.

Consider `O=C(N/N=C/C1CCN(Cc2ccccc2)CC1)c1ccc(O)cc1O` [3b, N’-[(E)-(1-benzylpiperidin-4-yl)methylidene]-2,4-dihydroxybenzohydrazide], for which the IC50 in the series on SH-SY5Y cells is 138 µM. Further, the BBB permeability class entry in “PAMPA-BBB permeability” (PAMPA-BBB) was “moderately permeable”. Also, the “PAMPA BBB −logPe” value in “PAMPA-BBB permeability” is reported as 5.873. Further, in series [1], the inhibition at 1000 µM was 75.9% and the IC50 came to 262 ± 8.75 µM. Besides, the FRAP in series [2] was 16.63 ± 0.98 μMTE. For the same compound, the “DPPH Activity” value in series [3] is recorded as 13.30 ± 0.83%. Further, in [4], the “ABTS Activity” value is reported as 93.22 ± 0.30% and it took 2570 ± 100 µM to reach half-maximal inhibition (IC50). For the same compound, in [5], the inhibition at 1000 µM worked out at 89.3%, the “SI AChE” value turned out to be 13.22 and the IC50 was found to be 19.8 ± 0.95 µM. In the series on CCL-1 cells, the IC50 was determined as 154 ± 7.3 µM. In addition, the IC50 in the series with Neuro-2a cells is more than 300 µM. In series [6], the “Absorbance Day 1” value worked out at 0.92 ± 0.06, the “Absorbance Day 2” value was found to be 0.93 ± 0.09, the “Absorbance Day 3” value is listed as 0.95 ± 0.05 and the “Absorbance Day 4” value worked out at 0.96 ± 0.01. In addition, the “Absorbance Day 5” value in [6] turned out to be 1.00 ± 0.02.

Turning to `CC(C)(C)OC(=O)NCC(=O)N/N=C/c1cn(Cc2ccccc2)c2ccccc12` [3m, tert-butyl(2-{(2E)-2-[(1-benzyl-1H-indol-3-yl)methylidene]hydrazinyl}-2-oxoethyl)carbamate], the half-maximal inhibitory concentration (IC50) in the series on SH-SY5Y cells was determined as 7.2 ± 1.8 µM. Besides, in the series “PAMPA-BBB permeability”, the “PAMPA BBB −logPe” value is reported as 4.377. For the same compound, in series [1], the inhibition at 1000 µM turned out to be 59.4%, the “SI BChE” value is listed as 3.05 and the IC50 was 327 ± 34.3 µM. The FRAP in series [2] came out at 19.06 ± 1.96 μMTE. Further, in series [3], the “DPPH Activity” value was 32.06 ± 4.70%. For the same compound, in series [4], the “ABTS Activity” value was determined as 36.20 ± 1.40% and the IC50 is more than 5000 µM. In addition, in series [5], the inhibition at 1000 µM was 2.01% and the IC50 is more than 1000 µM. The IC50 in the series with CCL-1 cells was found to be 65.4 ± 5.1 µM. The 50% inhibitory concentration (IC50) in the series with Neuro-2a cells is 109 ± 9.1 µM. Besides, in series [6], the “Absorbance Day 1” value came to 0.89 ± 0.09, the “Absorbance Day 2” value is reported as 0.89 ± 0.01, the “Absorbance Day 3” value is on record as 0.92 ± 0.05 and the “Absorbance Day 4” value worked out at 0.95 ± 0.01. In addition, the “Absorbance Day 5” value in series [6] was determined as 0.96 ± 0.08.

With `COc1ccc(/C=N/NS(=O)(=O)c2ccc(C)cc2)cc1OC` [5h, N’-[(E)-(3,4-dimethoxyphenyl)methylidene]-4-methylbenzenesulfonohydrazide], the IC50 in the series with SH-SY5Y cells was 42 ± 5.2 µM. Further, in [1], the inhibition at 1000 µM was 26.6 ± 5.11% and the IC50 was more than 1000 µM. In series [2], the FRAP stood at 20.37 ± 0.90 μMTE. Further, in series [3], the “DPPH Activity” value turned out to be 16.94 ± 1.09%. In addition, in series [4], the “ABTS Activity” value is listed as not below 100% and it took 1850 ± 30 µM to reach half-maximal inhibition (IC50). In [5], the inhibition at 1000 µM was 10.5% and the IC50 was more than 1000 µM. The IC50 in the series on CCL-1 cells was 160 µM. Moreover, the IC50 with Neuro-2a cells came to 136 ± 12.6 µM. Besides, in series [6], the “Absorbance Day 1” value is given as 0.70 ± 0.09, the “Absorbance Day 2” value is given as 0.82 ± 0.06, the “Absorbance Day 3” value was determined as 0.83 ± 0.05 and the “Absorbance Day 4” value was determined as 0.83 ± 0.06. In addition, the “Absorbance Day 5” value in [6] is recorded as 0.80 ± 0.05.

As a reminder, the IC50 is the concentration needed to halve the response being measured. As usually defined, the inhibition is the relative decrease from the control value, in per cent.
